Results taken from patent US20060234373A1, “Treatment for diabetes” (priority 2002, published 2006).
Marks after values point to notes of the source that are not given here.

Tests used:
normal Wistar rats = assay: Pancreatic insulin content in normal rats treated with TGF-α and gastrin; type: in vivo, rat; conditions: 0.8 μg/day each i.p. for 10 days, mean±SEM
Method: Normal Wistar and Zucker rats were allowed normal chow ad libidum with free access to water and were acclimatized for one week prior to initiation of each study. Freshly prepared streptozotocin at a dose of 80 mg/kg body weight was administered by I.V. five to seven days after induction of diabetes, the rats were randomly allocated into groups for subsequent treatment. In examples 1-4, TGF-α and rat gastrin were reconstituted in sterile normal saline containing 0.1% BSA. According to the predetermined treatment schedule for different studies, each animal received a single, daily i.p. injection of either TGF-α or gastrin alone (4.0 μg/kg body weight) or as a 1:1 (w/w) combination (total 8.0 μg/kg) or PBS for a period of 10 days. […]
At the end of the study period (10 days), all animals were sacrificed and samples of pancreas taken as follows: five biopsy specimens (1-2 mg) of pancreatic tissue were taken from separate representative sites in each rat pancreas and immediately snap frozen in liquid nitrogen for analysis of insulin content. […] Pancreatic insulin content values were corrected according to protein content and finally expressed as μg insulin/mg pancreatic protein. All values calculated as mean±SEM and statistical significance evaluated using Student's 2-sample t-test.

isolated human islets = assay: β-cell population of isolated human islets maintained in culture; type: cell-based
Method: The purpose of this experiment was to determine whether treatment with EGF and gastrin can increase the β-cell population of human islets in vitro and by what mechanism. Islet cell preparations were isolated from human donor pancreases (n=5) and prepared according to the approved protocol used for preparation of human islets for islet cell transplantation (Lakey JRT et al (1999) Cell transplant 8:285-292, and Ricordi C. et al. (1988) Diabetes 37:413-420). Islet cells were seeded at a concentration of 1×10^6 cells per dish and cultured for 4 weeks in serum free-MEM medium alone or supplemented with EGF (0.3 μg/ml), gastrin (1.0 μg/ml), or EGF+gastrin in combination for 4 weeks and maintained in culture for an additional 4 weeks.

Row | Substance | Pancreatic Insulin Content (normal Wistar rats) | β-cell mass change (isolated human islets; after 4 weeks culture, EGF 0.3 μg/ml, gastrin 1.0 μg/ml, medium alone −60%) [%] | induction of PDX-1 expression on CK19+ ductal cells (isolated human islets; human islets in culture)
1 | Gastrin | 51.4 +/− 14.0** μg insulin/mg protein | −1 | mainly responsible for induction of PDX-1 expression
2 | TGF-α: recombinant Human TGF-α, an EGF receptor ligand | 30.4 +/− 7.4* μg insulin/mg protein | – | –
